The results in this text go back to the Bradley open melting point set (2014).

Structures are written as SMILES. Several values for one entry are separate records, joined by “and”; a condition that tells them apart may be missing. Identical values can stand only once.

As for `O=[N+]([O-])c1ccc(F)c([N+](=O)[O-])c1` [1-Fluoro-2,4-dinitrobenzene], the melting point amounted to 27 °C. In the case of `Brc1cccc(Br)c1` [1,3-dibromobenzene] it was -7 °C; in that of `COc1cc(B(O)O)cc(OC)c1OC` [3,4,5-trimethoxybenzeneboronic acid], 245 °C; in that of `C=C(C)CC1(CC)C(=O)NC(=S)NC1=O` [methallatal], 160 °C.

For `C=CCCCCCCCCC` [1-undecene], the melting point was -49 °C. In the case of `O=C(O)CCc1ccc(C(=O)O)cc1` [3-(4-carboxyphenyl)propionic acid] it was 290 °C.

Molecule `O=Cc1ccc(O)c(O)c1` [3,4-Dihydroxybenzaldehyde] displayed a melting point of 154 °C.

Consider `CCCCOc1cc(C(=O)NCCN(CC)CC)c2ccccc2n1` [dibucaine], for which the melting point amounted to 64.5 °C. In turn, `C#C[C@]1(O)CC[C@H]2[C@@H]3CCC4=CC(=O)CC[C@@H]4[C@H]3CC[C@@]21CC` [Levonorgestrel] came in with a melting point of 236 °C. In the case of `COc1ccc([N+](=O)[O-])cc1N` [2-Methoxy-5-nitroaniline] it was 118 °C; in that of `Sc1ccccc1S` [1,2-benzenedithiol], 23 °C; in that of `Cc1ccc(C)c(N)c1` [2,5-Xylidine], 15.5 °C.

With `C=C[C@H]1CN2CC[C@H]1C[C@H]2[C@H](O)c1ccnc2ccc(OC)cc12` [quinine], the melting point was 176 °C and 174 °C. In turn, `O=NN1CN2CN(C1)CN(N=O)C2` [3,7-Dinitroso-1,3,5,7-tetraazabicyclo[3.3.1]nonane] yielded a melting point of 207 °C. `C(#Cc1ccccc1)c1ccccc1` [diphenylacetylene] came in with a melting point of 60 °C.

Turning to `Oc1ccccc1Cl` [o-chlorophenol], the melting point was found to be 8 °C. `Clc1cccc(I)c1Cl` [1,2-dichloro-3-iodobenzene] showed a melting point of 35 °C. Then `CC1(C)O[C@]2(C)CC[C@H]1CC2` [(1s,4s)-1,3,3-Trimethyl-2-oxabicyclo[2.2.2]octane], with 2 °C; and `COc1ccc(I)cc1` [4-iodoanisole], with 50 °C. Then `O=Cc1cc([N+](=O)[O-])ccc1Cl` [2-chloro-5-nitrobenzaldehyde], with 71 °C; and `CC(=O)c1cc(O)ccc1O` [2',5'-dihydroxyacetophenone], with 206 °C; and `Oc1ccc(Cl)c(Cl)c1` [3,4-dichlorophenol], with 68 °C and 66 °C. Take `O=C1CCC(c2ccccc2)(C2CCN(Cc3ccccc3)CC2)C(=O)N1` (stereo unspecified) [benzetimide]: the melting point is 156 °C. Then `O=S(=O)(Cl)Cc1ccc(C(F)(F)F)cc1` [4-trifluoromethyl-alpha-toluenesulfonyl chloride], with 104 °C; and `COc1ccc(C(=O)O)cc1OC` [3,4-dimethoxybenzoic acid], with 181 °C. `CC(C)(C)c1ccc(C(C)(C)C)cc1` [1,4-di-tert-butylbenzene] came in with a melting point of 77 °C. Then `CN1C(C(=O)Nc2ccccn2)=C(O)c2ccccc2S1(=O)=O` [piroxicam], with 200 °C and 199 °C; and `CC(=O)c1ccc(C#N)cc1` [4-acetylbenzonitrile], with 58 °C. Regarding `COc1ccc(C(=O)O)cc1[N+](=O)[O-]` [4-methoxy-3-nitrobenzoic acid], the melting point came to 188 °C. Regarding `c1ccc2c(c1)ccc1ccccc12` [phenanthrene], the melting point was 99.2 °C and 101 °C and 99 °C. In the case of `CCSC` [ethyl methyl sulfide], the melting point was -106 °C. In the case of `CC(=O)c1ccco1` [1-(2-Furyl)ethanone] it was 29.5 °C; in that of `Fc1ccc(Br)cc1` [1-bromo-4-fluorobenzene], -16 °C; in that of `C=CCCCCCCC` [1-nonene], -81 °C. Then `CCOC(=O)Nc1ccc2c(c1)N(C(=O)CCN1CCOCC1)c1ccccc1S2` [moricizine], with 156 °C; and `N#Cc1ccc(C#N)cc1` [1,4-dicyanobenzene], with 226 °C. In the case of `CC(C)I` [2-Iodopropane] it was -90 °C. `O=C(S)c1ccccc1` [thiobenzoic acid] gave a melting point of 17 °C. Then `CS(C)=O` [dimethyl sulfoxide], with 18 °C; and `CCC(c1ccccc1)c1ccccc1` [1,1-diphenylpropane], with 14 °C. `O=C1CC[C@@H](C(=O)O)N1` [5-Oxo-L-proline] gave a melting point of 162 °C. In the case of `CC1(C)C(=O)N(Cl)C(=O)N1Cl` [1,3-Dichloro-5,5-dimethylimidazolidine-2,4-dione] it was 135 °C; in that of `CCCC1=NNC(=O)C1` [3-n-propyl-2-pyrazolin-5-one], 208 °C.

In the case of `O=C(O)c1cc(Cl)ccc1Br` [2-bromo-5-chlorobenzoic acid], the melting point is 154 °C. Turning to `CC(C)(C)c1cc(C=O)cc(C(C)(C)C)c1O` [3,5-di-tert-butyl-4-hydroxybenzaldehyde], the melting point was determined as 188 °C. Then `Nc1cccc(O)c1` [m-aminophenol], with 125 °C. In the case of `N(=N/c1ccccc1)c2ccccc2` [azobenzene] it was 69 °C; in that of `CCCCCCCCCCCCCCCCCCCC(=O)OC` [methyl eicosanoate], 48 °C; in that of `CCCCC(CC)CO` (stereo unspecified) [2-ethyl-1-hexanol], -76 °C. `N#Cc1c(Cl)cccc1Cl` [2,6-dichlorobenzonitrile]: the melting point amounted to 145 °C. Regarding `CCCCCCCCCCNCCCCCCCCCC` [di-n-decylamine], the melting point was 37 °C. Then `CC(Br)CCCBr` (stereo unspecified) [1,4-dibromopentane], with -34 °C; and `CCCCCCCCCC(C)=O` [2-undecanone], with 12 °C; and `CC(=O)N(C1=NC(=O)/C(=C/c2cc(C)n(-c3ccccc3)c2C)S1)c1ccccc1` [OSM-S-49], with 238 °C. Consider `O=C(C=Cc1ccccc1)C=Cc1ccccc1` [1,5-Diphenylpenta-1,4-dien-3-one], for which the melting point worked out at 111 °C. Then `OCc1ccc(Cl)cc1` [4-chlorobenzyl alcohol], with 71 °C. In the case of `CCOB(OCC)OCC` [triethyl borate], the melting point was -85 °C. In the case of `c1ccc(-c2nc3ccccc3nc2-c2ccc3ccccc3c2)cc1` [2-naphthalen-2-yl-3-phenylquinoxaline] it was 122 °C. In the case of `COc1ccc(C(N)=O)cc1` [4-methoxybenzamide] it was 166 °C; in that of `CN(C)c1ccc(/C=C(\C#N)c2nc(-c3cccc4ccccc34)cs2)cc1`, 129 °C.

With `Cc1cccc2c1Cc1ccccc1-2` [1-methylfluorene], the melting point was 85 °C. Turning to `ICI` [diiodomethane], the melting point amounted to 6 °C. In the case of `CC(C)C(=O)O` [Isobutyric Acid] it was -46 °C; in that of `CC(C)NCC(O)c1cc(O)cc(O)c1` (stereo unspecified) [Orciprenaline], 100 °C; in that of `N#Cc1ccc(Cc2ccccc2)cc1` [p-benzyl_benzonitrile], 51 °C.

As for `CC12CCC(C(C(c3ccccc3)c3ccccc3)C1=O)C2(C)C` (stereo unspecified) [2-Bornanone, 3-(diphenylmethyl)-], the melting point worked out at 107 °C. `Cc1c(N=C=O)cccc1N=C=O` [toluene-2,6-diisocyanate] yielded a melting point of 13 °C. Regarding `CC(C)(c1ccccc1)c1ccc(O)cc1` [4-(2-Phenylpropan-2-yl)phenol], the melting point stood at 71.5 °C. As for `Cc1cccc(Cl)c1` [1-Chloro-3-methylbenzene], the melting point is -48 °C.

The molecule `O=C(O)CCC(=O)C(=O)O` [2-oxopentanedioic acid] gave a melting point of 116 °C.

In the case of `O=Cc1ccc(Cl)c(Cl)c1` [3,4-dichlorobenzaldehyde], the melting point was 44 °C. As for `CCCCCCCCCCCCCCCCCCCCCCCCCCCCC` [Nonacosane], the melting point was 66 °C. In the case of `CC(=O)c1cccc(Br)c1` [3'-bromoacetophenone] it was 8 °C; in that of `Cn1c2ccccc2c2ccccc21` [9-Methyl-9H-carbazole], 91 °C; in that of `CC(=O)Nc1ccc(Cl)cc1` [4'-chloroacetanilide], 179 °C. `Nc1cccc(C(F)(F)F)c1` [3-(trifluoromethyl)aniline] yielded a melting point of 6 °C. For the molecule `CC(CCc1oc2ccc([N+](=O)[O-])cc2c1-c1ccc(C)o1)=NO`, the melting point worked out at 161 °C. Take `Clc1c(Cl)c(Cl)c(Cl)c(Cl)c1Cl` [hexachlorobenzene]: the melting point came out at 231 °C. Then `O=C(O)CC1Sc2ccccc2NC1=O` (stereo unspecified) [3,4-dihydro-3-oxo-2h-1,4-benzothiazine-2-acetic acid], with 188 °C.

On to `CC(=O)Oc1ccc2c3c1O[C@H]1[C@@H](OC(C)=O)C=C[C@H]4[C@@H](C2)N(C)CC[C@@]341` [heroin], for which the melting point turned out to be 173 °C. Then `Nc1ccc(N2CCOCC2)cc1` [4-(4-morpholinyl)aniline], with 131 °C; and `Clc1cccc(Cl)c1Br` [1-bromo-2,6-dichlorobenzene], with 66 °C. Then `O=C(N[C@@H](Cc1c[nH]c2ccccc12)C(=O)O)OCc1ccccc1` [N(alpha)-benzyloxycarbonyl-l-tryptophan], with 124 °C; and `C=Cc1cccc(C(=O)O)c1` [m-vinylbenzoic_acid], with 96 °C. In the case of `N#CC(=CN(O)c1ccccc1)c1ccccc1` [3-[hydroxy(phenyl)amino]-2-phenylprop-2-enenitrile] it was 155 °C; in that of `O=c1[nH]c2ccccc2n1C1CCN(CCCC(c2ccc(F)cc2)c2ccc(F)cc2)CC1` [pimozide], 216 °C. Turning to `COB(OC)OC` [Trimethyl borate], the melting point was -34 °C. Then `O=C(O)c1ccccc1O` [salicylic acid], with 157 °C; and `CCCCC(CC)CN` (stereo unspecified) [2-ethylhexylamine], with -76 °C; and `CC(C)=C/C(C)(C)C` [2,4,4-trimethyl-2-pentene], with -106 °C. Then `O=C(/C=C/c1ccc([N+](=O)[O-])cc1)c1ccccc1` [4-nitrochalcone], with 164 °C.
